Assay results taken from US12516038B2, “Inhibitors of antigen presentation by HLA-DR” (Janssen Pharmaceutica NV, priority 2020, dated 2026).

Legend:
HLA-DRB1*0401 = HLA-DRB1*0401 (Homo sapiens (Human), UniProt P01903+P01911, A100K/A169T/DEL228-266/F76Y/I96L/K127E/L162R/M171V/N62H/P40V/Q125Y/R42H/S133A/S149N/S66Y/V115G/V209L/W38E); assay: HLA-DR4 HTRF assay; type: binding; settings: inhibition of loading of Alexa Fluor 647-labeled Cit-CII peptide onto HLA-DR4 (CLIP cleaved)
Text: (§1) The screening was made through two sets of HLA-DR/peptide-dependent assays: a peptide-dependent Homogeneous Time Resolved Fluorescence (HTRF) binding assay followed by an HLA-DR dependent, peptide-specific T cell functional assay (HLA-DR4-restricted peptide-specific T cell-based assay hybridoma assay). The HTRF binding assay was designed to measure the ability of the small molecule to inhibit the loading of a fluorescently labeled high-affinity peptide onto HLA-DR peptide binding groove. The peptide-specific T cell functional assay assesses T cell activation resulting from proper peptide presentation onto HLA-DR expressed on the surface of the antigen-presenting cells to the T cell and is used to screen compounds able to inhibit such HLA-DR/peptide-dependent T cell activation.
The HLA-DR4 HTRF assay is based on HTRF technology and designed to measure ability of compounds to prevent loading of high-affinity Alexa Fluor 647-labeled Citrullinated Collagen 111236-1249 peptide (named Cit-CII/AF647, aa1236-1249, LQYM-Cit-ADQAAGGLR; Alexa Fluor 647 dye commercially available from Invitrogen) onto HLA-DRB1*0401. The HTRF assay technology is based on the energy transfer between two fluorophores, a donor and an acceptor, when in close proximity. The HLA-DR4 protein construct was uniquely designed for this assay and has (i) the α and […] subunits fused to human Fc chains and (ii) the invariant chain-associated peptide (CLIP peptide, aa85-101), the universal moderate/low-affinity HLA-DR binder, attached to the beta chain through a HRV3C protease-cleavable linker.
Because of the low stability of peptide free HLA-DR4 heterodimer, the construct was purified and delivered with CLIP peptide attached to the N-terminal of the β chain. The HLA-DR4 heterodimer was pre-treated with 3 μL HRV3C protease (Novagen E71493-3) (˜2 U/μL) per mg of the cleavable protein to cleave CLIP peptide and incubated overnight (>16 hrs) at 4° C. This method yielded at least 80% cleavage and allowed the CLIP peptide to be potentially exchanged with the fluorescently labeled high affinity cit-CII1236-1249 peptide. A batch of […] protein with CLIP cleaved was prepared for multiple experiments and was stable for several months when stored at 4° C.
In this assay, anti-human Fc antibody labeled with Tb-Cryptate probe was used as the donor (commercially available from Cisbio—PAb Anti-human IgG-Tb Cryptate, Cat #61HFCTAB) and high affinity peptide Citrullinated CII (cit-CII) labeled with Alexa 647 fluorophore was utilized as the acceptor. Inhibitors of the exchange of the pre-cleaved CLIP peptide for the high affinity cit-CII1236-1249 peptide onto HLA-DRB1*04:01 caused a decrease in HTRF signal as measured by the ratio of the 665 nm/620 nm emitted signal. Screening compounds were robotically pre-dispensed (150 nL, Hummingbird, DigiLab/CyBio AG) onto black, round bottom, nontreated, 1536-well assay plates (Corning #3939), were incubated with 3 nM HLA-DR4 (with CLIP cleaved) plus 1 nM Human IgG-Tb (anti-Fc-Tb) Antibody for 45 min prior to addition of 40 nM Cit-CII peptide labeled with Alexa-647. The negative control was DMSO plus 1 nM Human IgG-Tb (anti-Fc-Tb) Antibody, incubated for 45 minutes before addition of 40 nM Cit-CII peptide labeled with Alexa-647. The positive control was DMSO plus 3 nM HLA-DR4 (with CLIP cleaved) plus 1 nM Human IgG-Tb (anti-Fc-Tb) Antibody with 40 nM Cit-CII peptide labeled with Alexa-647 added after a 45-minute incubation. Plates were centrifuged at 1000 rpm for 1 minute and then incubated at 37° C., at 90% relative humidity for 90 minutes. After incubation, plates were read on a spectrophotometer, the Pherastar FS (BMG Labtech), in HTRF mode. The HTRF ratio as well as percent inhibition was calculated. Curve fitting and IC50 calculation for dose response data was performed by Microsoft Excel, 3DX (Janssen proprietary software) or Graphpad Prism (Graphpad Software, San Diego, CA). […]

[1] = tested on: HLA-DR4 restricted mouse T cell hybridoma line (DR4.CII.36.8) with HLA-DRB1*04:01-expressing Boleth cells; assay: HLA-DR4-restricted peptide-specific T cell-based assay (hybridoma assay); settings: Mus musculus, T-cell, 6 h, inhibition of IL-2 production, CII259-273 peptide presented by Boleth cells
Text: as §1
HLA-DR4-Restricted Peptide-Specific T Cell-Based Assay (Hybridoma Assay)
The hybridoma assay was used to measure compound inhibition of TL-2 production from an HLA-DR4 restricted mouse T cell hybridoma line (DR4.CII.36.8) that was antigen-specific for collagen II259-273 (CII259-273) peptide when presented with an HLA-DR4 expressing Antigen Presenting Cell (APC) cell line (i.e., Boleth).
To the HLA-DRB1*04:01-expressing B cell line (Boleth cell line from International Histocompatibility Working Group (IHWG), ref #IHW09031) was presented the collagen II 259-273 peptide (CII259-273, GIAGFKGEQGPKGEP) to mouse T cell hybridoma (DR4.CII.36.8 T cell hybridoma; clone 36.8, expressing a CII259-273-specific, HLA-DRB1*04:01-restricted T cell receptor). Upon proper CII259-273 peptide presentation, the T cell hybridoma was activated and thus produced IL-2 cytokine, whose level in the cell culture supernatant was detected using mouse IL-2 AlphaLISA kit (Perkin Elmer, Cat: AL511F).
This assay was performed in a 384-well plate (polypropylene V-bottom Greiner bio-one, ref #784075) by: (i) pre-incubation of 20 μL of 1.25 million/mL Boleth cells (25,000 cells) resuspended in DMEM/1% fetal calf serum (FCS; Gibco, ref #16140-071) with 20 μL of 2.5× final concentration of compound of interest in DMEM/1% serum/0.75% DMSO at 37° C. for 1 hr in the incubator, then (ii) 10 μL of 5 million/mL (50,000 cells) DR4.CII.36.8 T cell hybridoma cells resuspended in DMEM/1% FCS was added and incubated for 6 h at 37° C. in the incubator. Supernatant was then collected and mouse IL-2 detected using AlphaLISA kit (ref #AL511F). Compounds were tested in duplicate, with 8-point titration. Mean±SD of AlphaLISA units at each compound concentration was used for compound IC50 calculation. The negative control for this experiment was run without peptide stimulation and used a DMSO vehicle wherein no compound of interest was added. The positive control was run with peptide stimulation and used a DMSO vehicle wherein no compound of interest was added. Both the negative and positive controls were run in 8 replicates each. Curve fitting and IC50 calculation for dose response data was performed by GraphPad software 6 or higher (GraphPad Software, San Diego, CA). Dose response data was plotted versus the log of compound concentration and IC50 was determined using 4-parameter logistic (4-PL) curve fitting.

Compound | IC50 (HLA-DRB1*0401) [nM] | IC50 [1] [nM]
Cc1cc([C@@H](Oc2ccc3c(c2)OCCC3=O)c2ccncc2)ccc1C(N)=O (single isomer, unassigned) [Example 35a, (*R)-2-methyl-4-(((4-oxochroman-7-yl)oxy)(pyridin-4-yl)methyl)benzamide] | 960 | > 15000
Cc1c(O[C@@H](c2ccc(C(N)=O)cc2)c2ccccc2F)ccc2c1OCCC2=O (single isomer, unassigned) [Example 68b, (*S)-4-((2-Fluorophenyl)((8-methyl-4-oxochroman-7-yl)oxy)methyl)benzamide] | 5400 | > 15000
Cc1c(O[C@@H]2CCc3cnccc32)ccc2c1OCCC2=O (single isomer, unassigned) [Example 124a, (*R)-7-((6,7-dihydro-5H-cyclopenta[c]pyridin-5-yl)oxy)-8-methylchroman-4-one] | 570 | 14000
O=C1CCOc2cc(OC(c3ccncc3)c3ccccn3)ccc21 (racemic) [Example 6, (R,S)-7-(Pyridin-2-yl(pyridin-4-yl)methoxy)chroman-4-one] | 1800 | 1400
NC(=O)c1ccc([C@@H](Oc2ccc3c(c2)OCCC3=O)c2ccccn2)cc1 (single isomer, unassigned) [Example 32a, (*R)-4-(((4-oxochroman-7-yl)oxy)(pyridin-2-yl)methyl)benzamide] | 3600 | 8200
N#Cc1ccc([C@H](Oc2ccc3c(c2)OCCC3=O)c2ccncc2)cc1 (single isomer, unassigned) [Example 10b, (*S)-4-(((4-oxochroman-7-yl)oxy)(pyridin-4-yl)methyl)benzonitrile] | 910 | > 15000
Cc1c(O[C@H](c2ccc(Cl)cc2)c2ccc(C(N)=O)cc2)ccc2c1OCCC2=O (single isomer, unassigned) [Example 57b, (*S)-4-((4-chlorophenyl)((8-methyl-4-oxochroman-7-yl)oxy)methyl)benzamide] | 2000 | > 15000
Cc1c(O[C@@H](c2ccc(C#N)cc2)c2ccc(C(N)=O)cc2)ccc2c1OCCC2=O (single isomer, unassigned) [Example 59b, (*S)-4-((4-cyanophenyl)((8-methyl-4-oxochroman-7-yl)oxy)methyl)benzamide] | 1300 | > 15000
COc1cnccc1[C@H](Oc1ccc2c(c1)OCCC2=O)c1ccc(C(N)=O)cc1 (single isomer, unassigned) [Example 23a, (*R)-4-((3-methoxypyridin-4-yl)((4-oxochroman-7-yl)oxy)methyl)benzamide] | 450 | 10000
COc1cc(C(N)=O)ccc1[C@H](Oc1ccc2c(c1C)OCCC2=O)c1ccncc1 (single isomer, unassigned) [Example 82a, (*R)-3-Methoxy-4-(((8-methyl-4-oxochroman-7-yl)oxy)(pyridin-4-yl)methyl)benzamide] | 710 | > 15000
Cc1cc2c(c(C)c1O[C@@H](c1ccc(F)cc1)c1ccc(C(N)=O)cc1)OCCC2=O (single isomer, unassigned) [Example 90a, (*R)-4-(((6,8-dimethyl-4-oxochroman-7-yl)oxy)(4-fluorophenyl)methyl)benzamide] | 520 | > 15000
Cc1c(O[C@H]2CCc3cnccc32)ccc2c1OCCC2=O (single isomer, unassigned) [Example 124b, (*S)-7-((6,7-dihydro-5H-cyclopenta[c]pyridin-5-yl)oxy)-8-methylchroman-4-one] | 740 | 6000
C[C@H]1COc2cc(O[C@@H](c3ccncc3)c3ccc(C(N)=O)cc3)ccc2C1=O (single isomer, unassigned) [Example 44c, 4-((*R)—(((*S)-3-Methyl-4-oxochroman-7-yl)oxy)(pyridin-4-yl)methyl)benzamide] | 1300 | > 15000
